Series [1] is described as follows: Oral bioavailability in rats. In kind it is in vivo. The following applies: rat, oral (gastric lavage), plasma. On the procedure: (§1) Concentration was determined in animal plasma after oral (gastric lavage) administration.
Rats were anesthetized and instrumented with indwelling left jugular vein and left carotid artery catheters for test agent administration and for serial blood sampling, respectively. One day after instrumentation, blood samples were obtained before saline or inhibitor administration and at increasing time points after the oral administration.
(§2) Thrombin inhibitor concentrations in plasma were determined by the inactivation of a known amount of thrombin (where [thrombin]>>Ki of inhibitor) from an aliquot of acid-neutralized rat plasma. 0.25 ml of rat platelet poor plasma was mixed with 25 μl of 3M perchloric acid. The sample was centrifuged (14,000×g for 10 minutes) and 0.2 ml of the supernatant was neutralized with 0.43 ml of 1M TrisB 0.15M NaCl/0.1% PEG 8000 pH 7.8. 50-100 μl of acid-neutralized rat plasma was mixed with 50-100 μl of 0.03-3 μM thrombin. After equilibration, 5-10 μl of 5 mM Sar-Pro-Arg-pna (for <0.1 μM thrombin) or Spectrozyme PCa (for >0.1 μM thrombin) was added. The observed inhibited velocity was compared to inhibited velocities from a standard curve generated from rat plasma containing known amounts of inhibitor treated in an identical manner. The table below summarizes the results from these studies.

A further series has as its target T1, Factor Xa (fXa) (Homo sapiens, UniProt P00742).
T1 construct: Factor Xa (fXa), plasma kallikrein (p-Kal), plasmin (Pl)
The series can be described thus: Chromogenic assay, Factor Xa. The following applies: Table 3. It counts as biochemical.

Series [2] deals with tissue plasminogen activator (t-PA) (Homo sapiens, UniProt P00750). Description: Chromogenic assay, tissue plasminogen activator. The following applies: Table 3, read-out: Ki (nM) tPA. In kind it is biochemical.
tissue plasminogen activator (t-PA), sequence (P00750 36-562, species assumed): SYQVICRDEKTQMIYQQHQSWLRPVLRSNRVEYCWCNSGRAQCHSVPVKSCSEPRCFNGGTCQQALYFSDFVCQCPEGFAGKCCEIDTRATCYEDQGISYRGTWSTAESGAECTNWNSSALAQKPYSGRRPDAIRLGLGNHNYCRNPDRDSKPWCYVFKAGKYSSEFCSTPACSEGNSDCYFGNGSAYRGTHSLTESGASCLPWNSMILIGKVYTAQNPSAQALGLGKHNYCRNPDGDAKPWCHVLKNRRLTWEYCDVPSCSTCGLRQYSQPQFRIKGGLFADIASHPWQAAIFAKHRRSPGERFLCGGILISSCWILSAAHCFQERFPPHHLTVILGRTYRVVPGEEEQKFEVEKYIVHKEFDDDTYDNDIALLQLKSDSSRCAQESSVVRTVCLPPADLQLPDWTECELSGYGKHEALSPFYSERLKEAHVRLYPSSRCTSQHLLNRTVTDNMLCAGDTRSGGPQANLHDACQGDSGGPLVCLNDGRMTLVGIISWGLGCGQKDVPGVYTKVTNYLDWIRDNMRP
Series [3] is described as follows: Oral bioavailability in dogs. It counts as in vivo. Particulars: dog, oral (gastric lavage), plasma. On the procedure:
as §1
In dogs, the test agent was administered intravenously as a bolus or orally by gastric lavage. For intravenous studies, the sterile agent is dissolved in sterile 0.9% saline and administered via 19 g butterfly, usually via the saphenous vein. For oral studies, the sterile agent was dissolved in sterile water and administered via a feeding tube. Blood samples (5 cc each) were collected with a plastic syringe containing 3.8% sodium citrate via venipuncture (at sites other than that of drug administration) for drug plasma levels and thrombin clotting time assay. Dogs were allowed to recover 14 days before being used again in a similar protocol.
as §2, with “The observed inhibited velocity was compared to inhibited velocities from a standard curve generated from rat plasma containing known amounts of inhibitor treated in an identical manner. The table below summarizes the results from these studies.” left out

Series [4] deals with activated protein C (APC) (Homo sapiens, UniProt P04070). Description: Chromogenic assay, activated protein C. It counts as biochemical. Particulars: Table 3.
activated protein C (APC), sequence (P04070 212-461 limits assumed): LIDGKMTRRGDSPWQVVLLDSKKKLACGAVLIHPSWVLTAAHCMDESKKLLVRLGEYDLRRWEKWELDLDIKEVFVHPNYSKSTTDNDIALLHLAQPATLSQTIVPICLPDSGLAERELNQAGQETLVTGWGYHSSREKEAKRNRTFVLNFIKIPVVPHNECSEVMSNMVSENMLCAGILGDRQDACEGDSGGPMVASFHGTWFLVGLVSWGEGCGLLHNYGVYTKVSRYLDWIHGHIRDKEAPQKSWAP
activated protein C (APC), sequence (P04070 43-197 limits assumed): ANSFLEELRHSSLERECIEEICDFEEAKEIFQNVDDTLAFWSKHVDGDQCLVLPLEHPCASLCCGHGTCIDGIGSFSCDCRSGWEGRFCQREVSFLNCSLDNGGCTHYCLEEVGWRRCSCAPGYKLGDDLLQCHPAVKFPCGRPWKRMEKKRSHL
Series [5] is described as follows: Oral bioavailability in rhesus monkeys. It counts as in vivo, rhesus monkey. Particulars: oral (nasogastric tube), plasma. On the procedure:
as §1
In monkeys, the test agent was administered intravenously as a bolus or orally by pediatric nasogastric tube. For intravenous studies, the sterile agent was dissolved in sterile 0.9% saline and administered via 21 g butterfly, usually via the brachial vein. For oral studies, the sterile agent was dissolved in sterile water and administered via a nasogastric tube. Blood samples (4 cc each) were collected with a plastic syringe containing 3.8% sodium citrate via venipuncture (at sites other than that of drug administration) for drug plasma levels and thrombin clotting time assay. The monkeys were given water ad lib. Monkeys were allowed to recover 14 days before being used again in a similar protocol.
Thrombin inhibitor concentrations in plasma were determined by the inactivation of a known amount of thrombin (where [thrombin]>>Ki of inhibitor) from an aliquot of acid-neutralized rat plasma. 0.25 ml of rat platelet poor plasma was mixed with 25 μl of 3M perchloric acid. The sample was centrifuged (14,000×g for 10 minutes) and 0.2 ml of the supernatant was neutralized with 0.43 ml of 1M TrisB 0.15M NaCl/0.1% PEG 8000 pH 7.8. 50-100 μl of acid-neutralized rat plasma was mixed with 50-100 μl of 0.03-3 μM thrombin. […]

Series [6] relates to FeCl3 induced arterial thrombosis in rats. The series can be described thus: Rat ferric chloride assay. It counts as in vivo. On the procedure: In the assay, male Sprague-Dawley rats (body weights 200-350 grams) were anesthetized with dial-urethane solution (0.1 ml/100 gm body weight i.p.), and a lateral tail vein was cannulated with a 23 gauge needle connected to a 12 inch length of PE50 robing. The robing was attached to a 3-way valve by a tubing adapter. Saline (control) or test compound, as appropriate, was administered via the tail vein catheter. A tracheostomy was performed with a 0.75 inch length of PE205 tubing. The right carotid artery was exposed and a 1.3 mm diameter Doppler flow probe was placed on the vessel. Body temperature was maintained at 37° C. using a heat lamp.
Rats (8-10/group) were randomized to continuous intravenous infusions of saline or test compound administered via the tail vein at a rate of 0.028 ml/min. Treatment infusions were initiated 60 min before the placement of a 3 mm square piece of Whatman No. 1 filter paper saturated with 35% FeCl3 onto the exposed carotid artery distal to the flow probe. […] Time to occlusion was defined as the time from application of FeCl3 to thrombotic occlusion of the vessel.

The target in the next series is plasmin (Pl) (Homo sapiens, UniProt P00747). Description: Chromogenic assay, plasmin. The following applies: Table 3. In kind it is biochemical.
plasmin (Pl), sequence (P00747 581-810 limits assumed, species assumed): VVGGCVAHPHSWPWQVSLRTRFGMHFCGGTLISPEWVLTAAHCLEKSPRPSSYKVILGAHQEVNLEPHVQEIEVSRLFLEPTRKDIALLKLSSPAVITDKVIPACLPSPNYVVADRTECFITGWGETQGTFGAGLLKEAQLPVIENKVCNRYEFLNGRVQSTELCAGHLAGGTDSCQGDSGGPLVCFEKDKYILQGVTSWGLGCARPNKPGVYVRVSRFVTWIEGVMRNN
plasmin (Pl), sequence (P00747 97-580 limits assumed, species assumed): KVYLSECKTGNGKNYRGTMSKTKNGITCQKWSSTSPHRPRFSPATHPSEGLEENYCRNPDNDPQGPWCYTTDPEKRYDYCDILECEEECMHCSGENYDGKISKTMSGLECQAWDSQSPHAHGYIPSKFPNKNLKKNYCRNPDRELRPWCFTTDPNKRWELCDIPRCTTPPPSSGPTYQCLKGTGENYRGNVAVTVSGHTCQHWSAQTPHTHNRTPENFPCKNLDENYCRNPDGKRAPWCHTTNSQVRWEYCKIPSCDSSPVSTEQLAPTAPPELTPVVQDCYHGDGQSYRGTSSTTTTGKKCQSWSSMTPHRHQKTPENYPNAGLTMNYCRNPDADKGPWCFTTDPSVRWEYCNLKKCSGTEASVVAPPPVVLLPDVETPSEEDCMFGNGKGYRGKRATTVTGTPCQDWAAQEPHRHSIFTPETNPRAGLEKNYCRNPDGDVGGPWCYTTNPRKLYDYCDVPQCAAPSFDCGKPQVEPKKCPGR
For another series, the target named is T2, bovine trypsin (Bos taurus, UniProt P00760).
T2 sequence (P00760 24-246): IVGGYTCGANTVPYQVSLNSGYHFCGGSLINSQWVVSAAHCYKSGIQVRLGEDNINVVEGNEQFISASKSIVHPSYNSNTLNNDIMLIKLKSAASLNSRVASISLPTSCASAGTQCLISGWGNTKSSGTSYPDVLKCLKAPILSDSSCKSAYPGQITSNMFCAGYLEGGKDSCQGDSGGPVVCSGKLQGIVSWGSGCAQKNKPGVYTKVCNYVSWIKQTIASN
The series can be described thus: Proteinase inhibition assay, bovine trypsin. It counts as biochemical. The following applies: Table 1; 25° C., 0.05M TRIS pH 7.4, 0.15M NaCl, 0.1% PEG, 1 mM CaCl2; listed as drawing 22; read-out: Ki (μM) Trypsin. On the procedure: Assays of human α-thrombin and bovine trypsin were performed at 25° C. in 0.05M TRIS buffer pH 7.4, 0.15M NaCl, 0.1% PEG. Trypsin assays also contained 1 mM CaCl2.
In assays wherein rates of hydrolysis of a p-nitroanilide (pna) substrate were determined, a Thermomax 96-well plate reader was used was used to measure (at 405 nm) the time dependent appearance of p-nitroaniline. sar-PR-pna was used to assay human α-thrombin (Km =125 μM) and bovine trypsin (Km =125 μM). "Sar" is the three letter abbreviation for the amino acid sarcosine (N-methylglycine). p-Nitroanilide substrate concentration was determined from measurements of absorbance at 342 nm using an extinction coefficient of 8270 cm^-1 M^-1.
Times required to achieve equilibration between enzyme and inhibitor were determined in control experiments. Initial velocities of product formation in the absence (Vo) or presence of inhibitor (Vi) were measured. Assuming competitive inhibition, and that unity is negligible compared Km /[S], [S]/e, and [I]/e (where [S], [I], and e respectively represent the total concentrations, of substrate, inhibitor and enzyme), the equilibrium constant (Ki) for dissociation of the inhibitor from the enzyme can be obtained from the dependence of Vo /Vi on [I] shown in equation 1.
Using the assays described above, the following additional embodiments of the invention were evaluated and shown to be selective for inhibiting thrombin. The constants were determined at pH 7.4 in buffer containing 0.05M Tris, 0.15M NaCl, 0.1% PEG-8000 at room temperature.

For series [7], the target named is T3, plasma kallikrein (p-Kal) (Homo sapiens, UniProt P03952).
T3 construct: plasma kallikrein (p-Kal)
T3 sequence (P03952 391-638 limits assumed, species assumed): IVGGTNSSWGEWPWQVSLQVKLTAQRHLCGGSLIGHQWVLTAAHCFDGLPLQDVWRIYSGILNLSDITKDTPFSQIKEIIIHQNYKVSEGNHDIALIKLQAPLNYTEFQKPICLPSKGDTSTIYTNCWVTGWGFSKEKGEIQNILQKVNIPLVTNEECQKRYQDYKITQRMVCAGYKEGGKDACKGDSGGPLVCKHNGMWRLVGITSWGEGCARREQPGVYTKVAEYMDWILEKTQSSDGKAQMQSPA
T3 sequence (P03952 20-390 limits assumed, species assumed): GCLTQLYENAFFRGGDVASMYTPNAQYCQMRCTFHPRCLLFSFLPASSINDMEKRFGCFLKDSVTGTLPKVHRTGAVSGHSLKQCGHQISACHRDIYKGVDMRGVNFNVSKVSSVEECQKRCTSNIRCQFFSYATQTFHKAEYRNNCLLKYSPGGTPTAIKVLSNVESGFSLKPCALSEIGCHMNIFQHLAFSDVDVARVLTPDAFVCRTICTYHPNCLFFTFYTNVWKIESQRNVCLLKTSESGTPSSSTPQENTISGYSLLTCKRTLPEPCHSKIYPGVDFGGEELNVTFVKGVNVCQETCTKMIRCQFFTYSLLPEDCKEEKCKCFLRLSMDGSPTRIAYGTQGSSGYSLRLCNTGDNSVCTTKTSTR
Description: Chromogenic assay, plasma kallikrein. Particulars: Table 3. It counts as biochemical.

For orientation: Ki means a measure of affinity in units of concentration, obtained from inhibition or displacement.

T1 sequence (P00742 235-488 limits assumed): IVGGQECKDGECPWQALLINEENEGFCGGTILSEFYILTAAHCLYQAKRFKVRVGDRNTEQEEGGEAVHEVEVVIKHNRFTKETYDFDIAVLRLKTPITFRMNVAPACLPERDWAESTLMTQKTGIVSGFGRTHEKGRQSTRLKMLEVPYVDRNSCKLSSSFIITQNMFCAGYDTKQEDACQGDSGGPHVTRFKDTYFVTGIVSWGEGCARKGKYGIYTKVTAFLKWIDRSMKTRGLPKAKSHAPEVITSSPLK
T1 sequence (P00742 41-179 limits assumed): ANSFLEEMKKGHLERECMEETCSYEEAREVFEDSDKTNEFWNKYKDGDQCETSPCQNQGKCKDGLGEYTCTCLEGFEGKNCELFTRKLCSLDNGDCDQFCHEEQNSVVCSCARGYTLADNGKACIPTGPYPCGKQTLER

For the compound `CNC(=O)C(=O)C(NC(=O)C1CCCN1C(=O)C(Cc1ccccc1)NC)C1CCC(N)CC1` [4-4, H-NMe-D.-Phe-Pro-t-L-Acg.PSI.[COCO]--NHMe], the “% bioavailable” value in series [1] is on record as 5%; in series [3], 8%; in series [5], 5%. For the same compound, the Ki is above 10000 nM at Factor Xa (fXa); above 10000 nM in series [2]; above 10000 nM in series [4]; above 10000 nM on plasmin (Pl); 1.15 µM on bovine trypsin; above 10000 nM in series [7]. In addition, the Incidence of occlusion in series [6] (1 μg/kg/min i.v. infusion) is 3/4; in series [6] (5 μg/kg/min i.v. infusion) it was 2/4; in [6] (10 μg/kg/min i.v. infusion), 0/4. Besides, the “Minutes to occulsion of those occluding” value was 21 min in series [6] (1 μg/kg/min i.v. infusion) and 18 to 20 min in [6] (5 μg/kg/min i.v. infusion).

The record behind these values is patent publication US5672582A, “Thrombin inhibitors” (Merck & Co., Inc., priority 1994, dated 1997).
